From US10966994B2, “Thromboxane receptor antagonists” (ATXA THERAPEUTICS LIMITED, priority 2015, dated 2021)

Test system: MCT-induced PAH
Assay: Monocrotoline (MCT)-induced model of pulmonary arterial hypertension (PAH) in rats
Type: in vivo, rat
Conditions: day 28, oral BID, NTP42 and TP20 0.25 mg/kg/dose, Sildenafil 50 mg/kg/dose
Procedure: FIGS. 19-23 show the efficacy of NTP42 in the monocrotoline (MCT)-induced model of pulmonary arterial hypertension (PAH) in rats. In brief, male Wistar/Kyoto rats were given a single dose of MCT (60 mg/kg, subcutaneously) and then treated with twice daily doses (oral dosing) for 28 days with either the drug vehicle, the test article NTP42 (0.25 mg/kg/dose, BID) or with the reference compounds Sildenafil (50 mg/kg/dose, BID) or TP20 (0.25 mg/kg/dose, BID). As a control, a group of rats were left untreated, i.e., no MCT or therapeutic drugs. At Day 28, post-MCT induction, rats were anaesthetised for cardiac surgery & hemodynamic parameters recorded. Thereafter, the trachea, heart & lungs were removed en masse, the wet weights of the heart & lungs recorded and then the lungs were harvested, fixed and processed for histopathology.
Aperio's ImageScope was used to analyze the digitally scanned H&E stained lung sections, where 10 random squares (approx. size or each square=1×10^6 μm^2) per lower, middle and upper section of lung tissue were selected for analysis. Within each square, all blood arterioles (complete arterioles within each square and those touching the right & bottom were assessed but not the left or top of the squares) were measured in ImageScope for luminal and total vessel diameter where the ratio of lumen to total vessel diameter was determined for each arteriole.
FIGS. 24-27 show the effect of the test articles on the mean (±S.E.M.) lumen: total vessel diameter ratio for all arterioles (Total) and the arterioles categorized by size: small, <50 μm total diameter; medium, 50-100 μm and large, >100 μm.
FIG. 27 presents data representing the mean (±SEM) lumen: total vessel diameter ratio for large arterioles (>100 μm).

CCCc1nn(C)c2c(=O)[nH]c(-c3cc(S(=O)(=O)N4CCN(C)CC4)ccc3OCC)nc12 [Sildenafil, reference compound]
lumen: total vessel diameter ratio versus animals treated with MCT-alone: significantly increased
